Measured values taken from patent publication US4822809A, “Benzazole lipoxygenase inhibiting compounds” (Abbott Laboratories, priority 1987, dated 1989).

Target: T1, 5-lipoxygenase (Rattus norvegicus, UniProt P12527)
T1 construct: 20,000×g supernatant from 6×10^4 homogenized RBL-1 cells; endogenous in cells; host or cells: RBL-1 cells (20,000×g supernatant of homogenate)
T1 sequence (P12527 1-673): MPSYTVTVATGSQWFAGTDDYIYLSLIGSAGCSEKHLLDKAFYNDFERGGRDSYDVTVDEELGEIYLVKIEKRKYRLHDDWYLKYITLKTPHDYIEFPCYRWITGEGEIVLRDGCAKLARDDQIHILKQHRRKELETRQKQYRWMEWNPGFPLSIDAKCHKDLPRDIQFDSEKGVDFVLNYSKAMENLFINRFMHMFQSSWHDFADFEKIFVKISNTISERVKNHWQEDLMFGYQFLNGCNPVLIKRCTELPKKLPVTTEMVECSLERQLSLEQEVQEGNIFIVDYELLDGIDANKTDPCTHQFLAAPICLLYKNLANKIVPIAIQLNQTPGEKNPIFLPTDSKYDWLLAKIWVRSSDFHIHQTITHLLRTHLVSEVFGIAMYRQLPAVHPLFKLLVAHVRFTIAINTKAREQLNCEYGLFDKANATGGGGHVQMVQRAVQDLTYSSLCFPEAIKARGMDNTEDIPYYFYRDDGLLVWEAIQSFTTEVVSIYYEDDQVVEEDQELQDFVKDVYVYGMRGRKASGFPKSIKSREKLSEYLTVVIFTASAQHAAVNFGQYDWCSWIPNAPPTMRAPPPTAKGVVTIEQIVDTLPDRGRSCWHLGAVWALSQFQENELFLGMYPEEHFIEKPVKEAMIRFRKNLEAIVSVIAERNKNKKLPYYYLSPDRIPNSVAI
Assay: 5-lipoxygenase inhibition, 20,000×g supernatant of homogenized RBL-1 cells, radiolabelled arachidonic acid
Type: biochemical
Details: In vitro 5-lipoxygenase inhibitory potency; RBL-1 cell 20,000×g supernatant, 2% DMSO
Method: Assays to determine 5-lipoxygenase activity were performed in 200 μL incubations containing the 20,000×g supernatant from 6×10^4 homogenized RBL-1 cells, 2% DMSO vehicle and various concentrations of the test compound. Reactions were initiated by addition of radiolabelled arachidonic acid and terminated by acidification and ether extraction. Reaction products were separated from nonconverted substrate by thin layer chromatography and measured by liquid scintillation spectroscopy. All treatments were evaluated in triplicate incubations. Inhibition of 5-lipoxygenase activity was computed by comparison of the quantity of products formed in the treatment incubations to the mean product formation in vehicle control groups (n=8). IC50 values and 95% confidence limits were computed by linear regression analysis of percentage inhibition versus log inhibitor concentration plots. The results of the assay indicate that the compounds are inhibitors of 5-lipoxygenase.

Row | IC50 | SMILES
1 | 85 µM | CNC(=O)N(O)Cc1nc2ccccc2n1C [Example 1, N-hydroxy-N-(1-methyl-benzo[b]imidazol-2-ylmethyl)N'-methylurea]
2 | 1.9 µM | CC(c1nc2ccccc2s1)N(O)C(N)=O (centres unmarked) [Example 2, N-hydroxy-N-(1-benzo[b]thiazol-2-ylethyl)urea]
